Test results from PMC9115314 (Biochemistry and Biophysics Reports, 2022).

target: h2E2 humanized anti-cocaine mAb; test: differential scanning fluorimetry; format: binding, Homo sapiens; conditions: read-out: Avg Kd (nM) ± Std. Dev. (fold increase vs unmodified h2E2 mAb)

Compared with CN1[C@H]2CC[C@@H]1[C@@H](C(=O)O)[C@@H](OC(=O)c1ccccc1)C2 [BE, benzoylecgonine], COC(=O)[C@H]1[C@@H](OC(=O)c2ccccc2)C[C@@H]2CC[C@H]1N2C [Coc, cocaine] is 3.3-fold lower in Kd: 177 ± 14 nM for the first, 53 ± 6.8 nM for the second.

Work on CCOC(=O)[C@H]1[C@@H](OC(=O)c2ccccc2)C[C@@H]2CC[C@H]1N2C [CE, cocaethylene] yielded a Kd of 20.7 ± 4.1 nM.
